According to US8053212B1, “Non-standard nucleoside analogs with reduced epimerization” (priority 2004, dated 2011):

Experiments:
[1] = Epimerization at neutral pH followed by 1H NMR in D2O; type: physicochemical; details: room temperature, after one week
Experimental: To measure the rate of epimerization of the nucleoside at neutral pH, a sample was dissolved in D2O and stored at room temperature. The ^1H NMR was measured after several time intervals. […] In particular, the NMR signal arising from H-6 of the heterocycle remained unchanged.

[2] = not given; remark: listed apart in the source

SMILES | fraction protonated at physiological pH [%] | change of 1H NMR spectrum (epimerization) [1] | pseudo first order rate constant of initial epimerization, kpH2 ([2]; pH 2.0, 37° C., aqueous) | slope of replot of logk versus pH ([2]; pH 2.0 to 5.0, 37° C.) | pseudo first order rate constant of initial epimerization, kpH5 ([2]; pH 5.0, 37° C., aqueous) | epimerization at high pH ([2]; pH 11.0, 23° C., 14 days, HPLC) | "end" value: fraction of starting material remaining at end of reaction ([2]; buffer, 336 h, pH 2)
Nc1[nH]c(=O)c([C@H]2C[C@H](O)[C@@H](CO)O2)cc1[N+](=O)[O-] | > 80 | did not change | ≈ 10^−4 s^−1 | −0.971 | ≈ 2×10^−7 s^−1 | no epimerization was detected | –
Nc1[nH]c(=O)c([C@H]2C[C@H](O)[C@@H](CO)O2)cc1[N+](=O)[O-] [nucleoside 4, 6-amino-5-nitro-3-(1′-beta-D-2′-deoxyribofuranosyl)-2(1H)-pyridone] | – | – | – | – | – | – | 0.09
